Values of other authors in PMC10341550, “Beta-Secretase 1 Recruits Amyloid-Beta Precursor Protein to ROCK2 Kinase, Resulting in Erroneous Phosphorylation and Beta-Amyloid Plaque Formation” (International Journal of Molecular Sciences, 2023).

Assays:
Conditions in all cases: cited from earlier work
[1] = tested on: Aβ production in an AD mouse brain
Text: Alzheimer’s disease is currently the leading cause of dementia, with no effective treatment. […] Although Aβ cannot account for all features of Alzheimer’s disease, reducing Aβ production or accumulation is a major therapeutic strategy to confront the disease. The accumulation of Aβ peptides in senile plaques is the consequence of pathological processing of APP. There are two major pathways of APP processing: a non-amyloidogenic pathway invo ...

ROCK2 = tested on: ROCK2
protein kinase CK2α = tested on: protein kinase CK2α
Text: Despite decades of intensive research, there is no efficient drug to prevent or cure Alzheimer’s disease. […] During the processing of APP, its cleavage by BACE1 is the rate-limiting step [16]; therefore, the inhibition of BACE1 could be a trivial solution. The development of small molecular inhibitors against BACE1 was set back with a series of unwanted side effects. Previously, it was shown that pharmacological inhibition of ROCK2 activity diminishes sAPPβ pro ...

| Compound | Aβ production [1] | ROCK2 inhibition selectivity (in words) (ROCK2) | inhibition of protein kinase CK2α (in words) (protein kinase CK2α) |
| --- | --- | --- | --- |
| CN(C)CCOc1cc(-c2cn[nH]c2)ccc1NC(=O)C1COc2ccccc2O1 (stereo not drawn) [SR3677] | diminished the production of Aβ in an AD mouse brain | – | – |
| CC(C)NC(=O)COc1cccc(-c2nc(Nc3ccc4[nH]ncc4c3)c3ccccc3n2)c1 [belumosudil] | – | highly selective | inhibition of the protein kinase CK2α |
